IC50 data for 18 compounds are collected here from patent publication US7462615B2, “Inhibitors of cysteine proteases, the pharmaceutical compositions thereof and their therapeutic applications” (Hybrigenics SA, priority 2005, dated 2008).

For this experiment, the target named is T1, USP8 (Homo sapiens, UniProt P40818).
T1 construct: His tag (from vector pFastBac-HT) (N); made in house; host or cells: Sf9 or High Five insect cells (baculovirus)
T1 sequence (P40818 1-1118): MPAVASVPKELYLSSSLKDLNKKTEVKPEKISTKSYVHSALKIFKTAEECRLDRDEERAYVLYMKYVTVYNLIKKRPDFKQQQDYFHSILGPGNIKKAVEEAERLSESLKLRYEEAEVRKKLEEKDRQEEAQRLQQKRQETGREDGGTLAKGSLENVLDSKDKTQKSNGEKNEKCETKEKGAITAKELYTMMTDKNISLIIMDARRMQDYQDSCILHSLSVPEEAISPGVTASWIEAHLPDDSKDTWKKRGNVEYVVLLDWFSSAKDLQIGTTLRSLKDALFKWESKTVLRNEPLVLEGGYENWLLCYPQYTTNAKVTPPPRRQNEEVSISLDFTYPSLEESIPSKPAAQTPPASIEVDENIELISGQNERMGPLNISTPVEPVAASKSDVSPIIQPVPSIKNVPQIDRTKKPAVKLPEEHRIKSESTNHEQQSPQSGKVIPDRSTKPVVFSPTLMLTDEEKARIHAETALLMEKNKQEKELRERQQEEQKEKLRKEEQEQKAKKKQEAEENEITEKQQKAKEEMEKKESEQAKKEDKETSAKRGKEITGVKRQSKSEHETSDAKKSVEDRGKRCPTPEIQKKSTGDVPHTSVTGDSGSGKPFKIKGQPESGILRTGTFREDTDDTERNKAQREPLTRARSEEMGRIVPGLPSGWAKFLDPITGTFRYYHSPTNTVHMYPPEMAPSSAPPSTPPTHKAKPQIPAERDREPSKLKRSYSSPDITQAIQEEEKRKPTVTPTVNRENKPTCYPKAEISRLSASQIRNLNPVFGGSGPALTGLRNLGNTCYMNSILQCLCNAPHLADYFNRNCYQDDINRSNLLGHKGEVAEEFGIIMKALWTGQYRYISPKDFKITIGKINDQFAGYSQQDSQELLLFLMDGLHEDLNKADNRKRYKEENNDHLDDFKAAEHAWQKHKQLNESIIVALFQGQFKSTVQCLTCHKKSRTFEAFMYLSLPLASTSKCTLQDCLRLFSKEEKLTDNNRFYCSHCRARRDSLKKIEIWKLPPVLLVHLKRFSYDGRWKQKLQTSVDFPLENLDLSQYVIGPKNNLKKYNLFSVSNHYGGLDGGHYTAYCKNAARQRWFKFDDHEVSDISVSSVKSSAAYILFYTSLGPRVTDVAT
Put plainly: USP8 Activity Assay. In kind it is biochemical. The note with it: 400 nM Ub-AMC; 630 pM enzyme; pH8.8; pre-incubated 30 minutes at 25° C., 60 minutes at 37° C.; sigmoidal fit; read-out: USP 8 (Inhibition of cysteine protease activities). The text has this:
The cDNA encoding USP8 was obtained by PCR amplification from placenta mRNA. USP8 cDNA was subcloned by PCR into a baculovirus expression vector (pFastBac-HT; Invitrogen). A cDNA encoding a mutated USP8 was generated by mutagenic PCR. The corresponding protein encodes a cysteine to alanine substitution at residue 786. The sequences were ascertained by sequencing of the entire open reading frame. Bacmids encoding USP7 were generated following DH10bac transposition. The corresponding bacmids were transfected into insect cells (Sf9). Viruses were recovered from culture supernatant and amplified twice. Insect cells (Sf9 or High Five; Invitrogen) were infected for 72 hours. Total cell lysates were harvested and lyzed in lysis buffer (Tris HCl 50 mM pH7.6; 0.75% NP40; 500 mM NaCl; 10% glycerol; 1 mM DTT; 10 mM imidazole; Protease Inhibitor Cocktail; AEBSF 20 μg.ml^−1; Aprotinin 10 μg.ml^−1). Proteins were affinity purified on metal affinity resins (Talon Metal affinity resin; BD Biosciences). Bound materials were extensively washed in wash buffer (50 mM Sodium Phosphate pH 7.0; 300 mM NaCl; 10 mM imidazole; 0.5% Triton X-100; 10% glycerol) and eluted from the resin in 250 mM imidazole-containing wash buffer. Proteins were dialyzed in dialysis buffer (Tris HCl pH 7.6 20 mM; NaCl 200 mM; DTT 1 mM; EDTA 1 mM; 10% Glycerol). Proteins purifications were analyzed on 4-12% NuPAGE (Invitrogen).
USP8 was diluted in USP buffer (50 mM Tris HCl; 0.5 mM EDTA; 5 mM DTT; 0.01% Triton X-100; Bovine Serum Albumin 0.05 mg.ml^−1 pH8.8). Compounds stocks (100 mM) were stored at −20° C. in DMSO.
Reactions were performed as duplicates in Black LJL 96 well plates (HE microplates; Molecular Devices; 20 μl final reaction volume). The substrate concentration for USP8 was 400 nM Ub-AMC (Boston Biochem). The concentrations of the enzyme (USP8) in specificity assays was 630 pM. The concentrations were determined in order to perform specificity assays under initial velocities at fixed substrate concentration. Compounds were pre-incubated with enzymes for 30 minutes at 25° C. Reactions were initiated by addition of substrate to the plates containing the enzymes (+/−compounds) diluted in assay buffer. Reactions were incubated for 60 minutes at 37° C. Reactions were stopped by adding acetic acid (100 mM final). Readings were performed on a Pherastar Fluorescent Reader (BMG). λ Emission 380 nm; λ Excitation=460 nm. Data (mean values +/− standard deviation) were analyzed as % of control (no compound) and plotted as percentage versus the Log of the compound concentration using GraphPad (Prism). Data were fitted to a sigmoidal model (variable slope).
For “6-(7)-Chloro-1-methyl-2,3,4,10,10a-pentaaza-cyclopenta[b]fluoren-9-one [Example 3/A]”, the IC50 turned out to be 301 nM.
With `Cc1nnc2nc3c(nn12)C(=O)c1ccccc1-3` [Example 1b/A, 1-Methyl-2,3,4,10,10a-pentaaza-cyclopenta[b]fluoren-9-one] the figure was 701 nM.
As for `Nc1nnc2nc3c(nn12)C(=O)c1ccccc1-3` [Example 1c/A, 1-Amino-2,3,4,10,10a-pentaaza-cyclopenta[b]fluoren-9-one], the IC50 turned out to be 840 nM.
With `Nc1nnc2nc3c(nn12)-c1ccccc1C3=O` [Example 1c/B, 3-Amino-1,2,3a,4,10-pentaaza-cyclopenta[b]fluoren-9-one] the figure was 81 nM; with `CCc1nnc2nc3c(nn12)C(=O)c1ccccc1-3` [Example 1d/A, 1-Ethyl-2,3,4,10,10a-pentaaza-cyclopenta[b]fluoren-9-one], 537 nM.
For `CCCc1nnc2nc3c(nn12)C(=O)c1ccccc1-3` [Example 1e/A, 1-Propyl-2,3,4,10,10a-pentaaza-cyclopenta[b]fluoren-9-one] the value was 952 nM; for `CCCCc1nnc2nc3c(nn12)C(=O)c1ccccc1-3` [Example 1f/A, 1-Butyl-2,3,4,10,10a-pentaaza-cyclopenta[b]fluoren-9-one], 830 nM; for `CCCCc1nnc2nc3c(nn12)-c1ccccc1C3=O` [Example 1f/B, 3-Butyl-1,2,3a,4,10-pentaaza-cyclopenta[b]fluoren-9-one], 151 nM.
`CC(C)Cc1nnc2nc3c(nn12)C(=O)c1ccccc1-3` [Example 1g/A, 1-Isobutyl-2,3,4,10,10a-pentaaza-cyclopenta[b]fluoren-9-one]: the IC50 worked out at 538 nM.
Take `CC(C)Cc1nnc2nc3c(nn12)-c1ccccc1C3=O` [Example 1g/B, 3-Isobutyl-1,2,3a,4,10-pentaaza-cyclopenta[b]fluoren-9-one]: the IC50 was 167 nM.
With `O=C1c2ccccc2-c2nc3nnc(CO)n3nc21` [Example 1h/A, 1-Hydroxymethyl-2,3,4,10,10a-pentaaza-cyclopenta[b]fluoren-9-one] the figure was 670 nM; with `O=C1c2ccccc2-c2nn3c(CO)nnc3nc21` [Example 1h/B], 164 nM; with `O=C1c2ccccc2-c2nc3nnc(C4CC4)n3nc21` [Example 1j/A, 1-Cyclopropyl-2,3,4,10,10a-pentaaza-cyclopenta[b]fluoren-9-one], 2500 nM.
For `O=C1c2ccccc2-c2nc3nnc(Cc4ccccc4)n3nc21` [Example 1k/A, 1-Benzyl-2,3,4,10,10a-pentaaza-cyclopenta[b]fluoren-9-one] the value was 663 nM; for `O=C1c2ccccc2-c2nn3c(Cc4ccccc4)nnc3nc21` [Example 1k/B, 3-Benzyl-1,2,3a,4,10-pentaaza-cyclopenta[b]fluoren-9-one], 166 nM.
As for `Cc1nnc2nc3c(nn12)-c1ccc(Cl)cc1C3=O` [Example 3/B, 7-Chloro-3-methyl-1,2,3a, 4,10-pentaaza-cyclopenta[b]fluoren-9-one], the IC50 came out at 119 nM.
With `Cn1nc2nc3c(nc2n1)-c1ccccc1C3=O` [Example 4a, 2-Methyl-2H-1,2,3,4,10-pentaaza-cyclopenta[b]fluoren-9-one] the figure was 10000 nM; with `O=C1c2ccccc2-c2nc3nn(Cc4ccccc4)nc3nc21` [Example 4b, 2-Benzyl-2H-1,2,3,4,10-pentaaza-cyclopenta[b]fluoren-9-one], 15000 nM.
